≈ marks a conversion by molar mass, not a printed value. Read-outs that look alike come from different tables or passages of the source.
How the values were obtained:
Assay type in all cases: cell-based
[1] = system: Streptococcus β-haemolyticus C203; assay: minimal inhibiting concentration (MIC), Gram-positive bacteria
Escherichia coli G = assay: minimal inhibiting concentration (MIC), Gram-negative bacteria
[2] = system: Enterobacter cloacae 1321E; assay: as above
[3] = system: Diplococcus pneumoniae ATCC6301; assay: minimal inhibiting concentration (MIC), Gram-positive bacteria; details: Streptococcus pneumoniae
[4] = system: streptococci (including diplococci); assay: activity against streptococci (including diplococci) compared with Cefazolin
Excerpt: (§1) The pharmaceutical or veterinary compositions containing the compounds of the invention may be prepared in a conventional way by employing the conventional carriers and/or diluents used for the other cephalosporins. Conventional carriers or diluents are, for example, water, gelatine, lactose, starches, magnesium stearate, talc, vegetable oils, cellulose and the like.

Escherichia coli 1507 = assay: minimal inhibiting concentration (MIC), Gram-negative bacteria
Haemophylus influenzae = assay: activity against Haemophylus influenzae in comparison with Cefazolin; details: 7 strains tested
Excerpt: as §1

Diplococcus aureus 39/2 = assay: minimal inhibiting concentration (MIC), Gram-positive bacteria
staphylococci = assay: activity against staphylococci compared with Cefazolin
Excerpt: as §1

[5] = system: 60 strains of Gram-negative microorganisms comprising Klebsiella, Escherichia coli, Proteus mirabilis and Proteus vulgaris; assay: activity on a series of 60 strains of Gram-negative microorganisms in comparison with Cefazolin
Excerpt: as §1

[6] = system: Staphylococcus aureus Smith; assay: minimal inhibiting concentration (MIC), Gram-positive bacteria
[7] = system: Klebsiella pneumoniae ATCC 10031; assay: minimal inhibiting concentration (MIC), Gram-negative bacteria; details: ATCC10031
Salmonella typhi Watson = assay: as above; details: Salmonella enterica
[8] = system: Enterobacter aerogenes ATCC8308; assay: as above; details: Klebsiella aerogenes
[9] = system: Proteus mirabilis ATCC9921; assay: as above
[10] = system: Shigella sonnei ATCC11060; assay: as above
Gram-negative bacteria = assay: activity against Gram-negative bacteria
Excerpt: The compounds of the invention may be administered, either to humans or to animals, in a variety of dosage forms, e.g., orally in the form of tablets, capsules, drops or syrups; rectally in the form of suppositories; parenterally, e.g. intravenously or intramuscolarly (as solutions or suspensions), with intravenous administration being preferred in emergency situation; by inhalation in the form of aerosols or solutions for nebulizers; intravaginally in the form, e.g. of bougies; or topically in the form of lotions, creams and ointments. The pharmaceutical or veterinary compositions containing the compounds of the invention may be prepared in a conventional way by employing the conventional carriers and/or diluents used for the other cephalosporins. Conventional carriers or diluents are, for example, water, gelatine, lactose, starches, magnesium stearate, talc, vegetable oils, cellulose and the like. Daily doses in the range of about 1 to about 100 mg per kg of body weight may be used, in various animal species, the exact dose depending on the age, weight and condition of the subject to be treated and on the frequency and route of administration. […]

[11] = system: Klebsiella aerogenes 1522E; assay: minimal inhibiting concentration (MIC), Gram-negative bacteria
[12] = Escherichia coli G, read-out: MIC

## Cn1nnnc1SCC1=C(C(=O)O)N2C(=O)C(NC(=O)CS/C=C\C#N)C2SC1 (stereo not drawn) [K 13101, 7-[β-cyano-ethylene(cis)-thio-acetamido]-3-[(1-methyl-1,2,3,4-tetrazol-5-yl)-thiomethyl]-3-cephem-4-carboxylic acid]
[1]
  MIC: 0.012 µg/mL (≈ 0.0265 µM)
Escherichia coli G; [12]
  MIC: 0.14 µg/mL (≈ 0.309 µM)
[2]
  MIC: 0.56 µg/mL (≈ 1.23 µM)
[3]
  MIC: 0.012 µg/mL (≈ 0.0265 µM)
[4]
  times more active than Cefazolin: about 4.2 times
Escherichia coli 1507
  MIC: 0.1 µg/mL (≈ 0.22 µM)
Haemophylus influenzae
  times more active than Cefazolin: about 6 times
Diplococcus aureus 39/2
  MIC: 0.14 µg/mL (≈ 0.309 µM)
staphylococci
  times more active than Cefazolin: about 2 times
[5]
  activity in comparison with Cefazolin: always found to be more active than Cefazolin
[6]
  MIC: 0.025 µg/mL (≈ 0.0551 µM)
[7]
  MIC: 0.1 µg/mL (≈ 0.22 µM)
Salmonella typhi Watson
  MIC: 0.07 µg/mL (≈ 0.154 µM)
[8]
  MIC: 0.2 µg/mL (≈ 0.441 µM)
[9]
  MIC: 0.4 µg/mL (≈ 0.882 µM)
[10]
  MIC: 0.8 µg/mL (≈ 1.76 µM)
Gram-negative bacteria
  times more active than Cefazolin: about 9.6 times
[11]
  MIC: 0.1 µg/mL (≈ 0.22 µM)

## Cc1nnc(SCC2=C(C(=O)O)N3C(=O)[C@@H](NC(=O)Cn4cnnn4)[C@H]3SC2)s1 [Cefazolin, 7-(1-(1H)-tetrazolylacetamido)-3-[2-(5-methyl-1,3,4-thiadiazolyl)-thiomethyl]-3-cephem-4-carboxylic acid, reference compound]
[1]
  MIC: 0.05 µg/mL (≈ 0.11 µM)
Escherichia coli G; [12]
  MIC: 1.6 µg/mL (≈ 3.52 µM)
[2]
  MIC: 3.1 µg/mL (≈ 6.82 µM)
[3]
  MIC: 0.05 µg/mL (≈ 0.11 µM)
Escherichia coli 1507
  MIC: 1.6 µg/mL (≈ 3.52 µM)
Diplococcus aureus 39/2
  MIC: 0.6 µg/mL (≈ 1.32 µM)
[6]
  MIC: 0.05 µg/mL (≈ 0.11 µM)
[7]
  MIC: 0.8 µg/mL (≈ 1.76 µM)
Salmonella typhi Watson
  MIC: 1.6 µg/mL (≈ 3.52 µM)
[8]
  MIC: 1.2 µg/mL (≈ 2.64 µM)
[9]
  MIC: 6.2 µg/mL (≈ 13.6 µM)
[10]
  MIC: 1.6 µg/mL (≈ 3.52 µM)
[11]
  MIC: 1.1 µg/mL (≈ 2.42 µM)

## N#C/C=C\SCC(=O)NC1C(=O)N2C(C(=O)O)=C(CSc3nncs3)CSC12 (stereo not drawn) [K 13107, 7-[β-cyano-ethylene(cis)-thio-acetamido]-3-[(1,3,4-thiadiazol-2-yl)-thiomethyl]-3-cephem-4-carboxylic acid]
[1]
  MIC: < 0.006 µg/mL
Escherichia coli G; [12]
  MIC: 0.57 µg/mL (≈ 1.25 µM)
[2]
  MIC: 1.6 µg/mL (≈ 3.51 µM)
[3]
  MIC: < 0.006 µg/mL
Escherichia coli 1507
  MIC: 0.57 µg/mL (≈ 1.25 µM)
Diplococcus aureus 39/2
  MIC: 0.14 µg/mL (≈ 0.307 µM)
[6]
  MIC: 0.025 µg/mL (≈ 0.0549 µM)
[7]
  MIC: 0.2 µg/mL (≈ 0.439 µM)
Salmonella typhi Watson
  MIC: 0.2 µg/mL (≈ 0.439 µM)
[8]
  MIC: 0.4 µg/mL (≈ 0.878 µM)
[9]
  MIC: 0.4 µg/mL (≈ 0.878 µM)
[10]
  MIC: 1.6 µg/mL (≈ 3.51 µM)
[11]
  MIC: 0.28 µg/mL (≈ 0.615 µM)

## Cn1nnnc1SCC1=C(C(=O)O)N2C(=O)C(NC(=O)CS/C=C/C(N)=O)C2SC1 (stereo not drawn) [K 11457, 7-[β-carboxamido-ethylene(trans)-thio-acetamido]-3-[(1-methyl-1,2,3,4-tetrazol-5-yl)-thiomethyl]-3-cephem-4-carboxylic acid]
[1]
  MIC: 0.025 µg/mL (≈ 0.053 µM)
Escherichia coli G; [12]
  MIC: 0.4 µg/mL (≈ 0.848 µM)
[2]
  MIC: 1.6 µg/mL (≈ 3.39 µM)
[3]
  MIC: 0.025 µg/mL (≈ 0.053 µM)
Escherichia coli 1507
  MIC: 0.4 µg/mL (≈ 0.848 µM)
Diplococcus aureus 39/2
  MIC: 0.4 µg/mL (≈ 0.848 µM)
[6]
  MIC: 0.1 µg/mL (≈ 0.212 µM)
[7]
  MIC: 0.15 µg/mL (≈ 0.318 µM)
Salmonella typhi Watson
  MIC: 0.2 µg/mL (≈ 0.424 µM)
[8]
  MIC: 0.4 µg/mL (≈ 0.848 µM)
[9]
  MIC: 3.1 µg/mL (≈ 6.57 µM)
[10]
  MIC: 1.6 µg/mL (≈ 3.39 µM)
[11]
  MIC: 0.2 µg/mL (≈ 0.424 µM)

## Cn1nnnc1SCC1=C(C(=O)O)N2C(=O)C(NC(=O)CS/C=C\C(N)=O)C2SC1 (stereo not drawn) [K 13031, 7-[β-carboxamido-ethylene(cis)-thio-acetamido]-3-[(1-methyl-1,2,3,4-tetrazol-5-yl)-thiomethyl]-3-cephem-4-carboxylic acid]
[1]
  MIC: < 0.012 µg/mL
Escherichia coli G; [12]
  MIC: 0.8 µg/mL (≈ 1.7 µM)
[2]
  MIC: 0.8 µg/mL (≈ 1.7 µM)
[3]
  MIC: 0.012 µg/mL (≈ 0.0254 µM)
Escherichia coli 1507
  MIC: 0.4 µg/mL (≈ 0.848 µM)
Diplococcus aureus 39/2
  MIC: 0.2 µg/mL (≈ 0.424 µM)
[6]
  MIC: 0.1 µg/mL (≈ 0.212 µM)
[7]
  MIC: 0.2 µg/mL (≈ 0.424 µM)
Salmonella typhi Watson
  MIC: 0.2 µg/mL (≈ 0.424 µM)
[8]
  MIC: 0.3 µg/mL (≈ 0.636 µM)
[9]
  MIC: 0.8 µg/mL (≈ 1.7 µM)
[10]
  MIC: 0.3 µg/mL (≈ 0.636 µM)
[11]
  MIC: 0.2 µg/mL (≈ 0.424 µM)

## Cn1nnnc1SCC1=C(C(=O)O)N2C(=O)C(NC(=O)[C@H](O)c3ccccc3)[C@H]2SC1 (stereo partly drawn) [Cefamandole, 7-D-mandelamido-3-{[(1-methyl-1H-tetrazol-5-yl)-thio]-methyl}-3-cephem-4-carboxylic acid, reference compound]
[1]
  MIC: 0.019 µg/mL (≈ 0.0411 µM)
Escherichia coli G; Escherichia coli
  MIC: 2.35 µg/mL (≈ 5.08 µM)
[2]
  MIC: 1.6 µg/mL (≈ 3.46 µM)
[3]
  MIC: 0.019 µg/mL (≈ 0.0411 µM)
Escherichia coli 1507
  MIC: 0.8 µg/mL (≈ 1.73 µM)
Diplococcus aureus 39/2
  MIC: 1.2 µg/mL (≈ 2.59 µM)
[6]
  MIC: 0.15 µg/mL (≈ 0.324 µM)
[7]
  MIC: 0.15 µg/mL (≈ 0.324 µM)
Salmonella typhi Watson
  MIC: 0.6 µg/mL (≈ 1.3 µM)
[8]
  MIC: 1.6 µg/mL (≈ 3.46 µM)
[9]
  MIC: 1.6 µg/mL (≈ 3.46 µM)
[10]
  MIC: 2.35 µg/mL (≈ 5.08 µM)
[11]
  MIC: 0.4 µg/mL (≈ 0.865 µM)

## Cc1nnc(SCC2=C(C(=O)O)N3C(=O)C(NC(=O)CSCC#N)C3SC2)s1 (stereo not shown) [K 9227, 7-[(cyanomethyl-thio)-acetamido]-3-[2-(5-methyl-1,3,4-thiadiazolyl)-thiomethyl]-3-cephem-4-carboxylic acid, reference compound]
[1]
  MIC: 0.025 µg/mL (≈ 0.0546 µM)
Escherichia coli G; [12]
  MIC: 3.1 µg/mL (≈ 6.77 µM)
[2]
  MIC: 3.1 µg/mL (≈ 6.77 µM)
[3]
  MIC: 0.4 µg/mL (≈ 0.874 µM)
Escherichia coli 1507
  MIC: 1.6 µg/mL (≈ 3.5 µM)
Diplococcus aureus 39/2
  MIC: 0.2 µg/mL (≈ 0.437 µM)
[6]
  MIC: 0.05 µg/mL (≈ 0.109 µM)
[7]
  MIC: 0.4 µg/mL (≈ 0.874 µM)
Salmonella typhi Watson
  MIC: 0.8 µg/mL (≈ 1.75 µM)
[8]
  MIC: 1.2 µg/mL (≈ 2.62 µM)
[9]
  MIC: 12.5 µg/mL (≈ 27.3 µM)
[10]
  MIC: 1.6 µg/mL (≈ 3.5 µM)
[11]
  MIC: 1.6 µg/mL (≈ 3.5 µM)

## Cn1nnnc1SCC1=C(C(=O)O)N2C(=O)C(NC(=O)CSCC#N)C2SC1 (stereo not shown) [K 10299, 7-[(cyanomethyl-thio)-acetamido]-3-[5-(1-methyl-1,2,3,4-tetrazolyl)-thiomethyl]-3-cephem-4-carboxylic acid, reference compound]
[1]
  MIC: 0.037 µg/mL (≈ 0.0838 µM)
Escherichia coli G; [12]
  MIC: 0.8 µg/mL (≈ 1.81 µM)
[2]
  MIC: 1.6 µg/mL (≈ 3.62 µM)
[3]
  MIC: 0.2 µg/mL (≈ 0.453 µM)
Escherichia coli 1507
  MIC: 0.8 µg/mL (≈ 1.81 µM)
Diplococcus aureus 39/2
  MIC: 0.4 µg/mL (≈ 0.906 µM)
[6]
  MIC: 0.075 µg/mL (≈ 0.17 µM)
[7]
  MIC: 0.2 µg/mL (≈ 0.453 µM)
Salmonella typhi Watson
  MIC: 0.2 µg/mL (≈ 0.453 µM)
[8]
  MIC: 0.6 µg/mL (≈ 1.36 µM)
[9]
  MIC: 6.2 µg/mL (≈ 14 µM)
[10]
  MIC: 1.6 µg/mL (≈ 3.62 µM)
[11]
  MIC: 0.8 µg/mL (≈ 1.81 µM)

From patent US4154830A, “Unsaturated derivatives of 7-acylamido-3-cephem-4-carboxylic acid” (Carlo Erba S.p.A., priority 1977, dated 1979)
